Test results published in patent publication US10889572B2, “Reactive oxygen species scavengers and use for treating diseases” (XW LABORATORIES INC., priority 2017, dated 2021).
Where two headings read alike, the source gives them in different places.

Tests used:
3T3-L1 cells = assay: Apoptosis assay (Caspase-Glo 3/7, Actinomycin D induced); format: cell-based; details: 100 nM Actinomycin D, 48 hours, Caspase-Glo 3/7, 2 hours pre-treatment, read-out: EC50, Inhibition for Apoptosis in 3T3-L1 Cell induced by Actinomycin D
Description: Cell Lines and Media. 3T3-L1 cells were obtained from American Type Culture Collection. Cells were grown in DMEM completed media, 10% FBS, and penicillin-streptomycin mix (Invitrogen). Cells were maintained at 37° C. and 5% CO2 in a tissue culture incubator.
Apoptosis Assay. […] We used this assay to screen our compounds for apoptosis inhibition. Briefly, 40 μL of 3000 3T3-L1 cells were seeded per well in 384 well plates, cells were allowed to adhere overnight. In the next day, prepare the Actinomycin D as the apoptosis inducing agent into 100 μM DMSO stock. Prepare the test compounds into 10 mM DMSO stock. Serial dilute the compound into 10 points by 3-fold dilution with DMSO. Pre-treat the 3T3-L1 cells with test compound by transfer 40 nL of stock of serial concentration in triplicate wells using acoustic fluid transfer, incubate for 2 hours. Then transfer 40 nL of 100 μM of Actinomycin D (final concentration is 100 nM) into designated wells using acoustic fluid transfer. Incubate the assay plates at 37° C., 5% CO2, 95% humidity incubator for 48 hours. For caspase assay, add 20 μL/well of Caspase-Glo>3/7 reagent (Promega) into test wells. Incubate for 30 minutes at room temperature to stabilize the luminescence signal. Read the plate with EnSpire Multimode Plate Reader (PerkinElmer). Calculate the EC50 value using formula equation 201: y−(A+((B−A)/(1+((x/C)^D)))) from the XLFit (Excel add-in software), where
A: Average mean of vehicle samples
B: Average mean of cells treated with 100 nM AcD
Z′ factor was used to describe the screening assay perfonuance. The Z′ factor value was >0.5 in all the test plates which indicated the assay was qualified and the IC50 value was reliable for all tested compounds.

[1] = tested on: HT-1080 (fibrosarcoma) cells; assay: Primary screening by ferroptosis assay (Erastin-induced, cell viability, CellTiter-Glo); format: cell-based; details: HT-1080 cells, % remaining activity, read-out: EC50, Inhibition for Ferroptosis in HT-1080 Cell
Description: Cell Lines and Media: HT-1080 (fibrosarcoma) cells were obtained from American Type Culture Collection. Cells were grown in EMEM media, 10% Heat-Inactivated FBS, and penicillin-streptomycin mix (Invitrogen). Cells were maintained at 37° C. and 5% CO2 in a tissue culture incubator.
Cell Viability Assay: Seed 10,000 cell/well of HT-1080 cells with 195 μL growth media in black and clear bottom 96-well plates (Cat #Corning 3904) and allow cells to adhere overnight. The next day, dilute test compound by 2-fold dilution into 12 points with medium containing 400 μM Erastin. Transfer 5 μL of compounds solution into growth medium in triplicated wells. 30 hours later, add Cell Titer-Glo® Luminescent cell viability assay reagent (Cat #, Promega G8081) to measure HT-1080 cell viability according to the manufacture protocol. Briefly, aspirate 100 μL medium, and add 50 μL CellTiter-Glo® Luminescent reagent to each well and incubated for 30 minutes at room temperature to stabilize the Luminescent signal. Seal the plates and centrifuged for 1 minute at 1,000 rpm to remove bubbles. Shake the plates for 1 minute on an orbital shaker. Read the plate to detect Luminescent signal with EnSpire Multimode Plate Reader (PerkinElmer). The remaining activity % is used to evaluate Erastin induced ferroptosis in HT-1080 cells and expressed as the following formula: % Remaining Activity−100×[(Sample−Backgroundavg)/(Vehicle−Background avg)]
Sample: Readout from the test compound
Vehicle: Readout from the vehicle sample
Background: Readout from the Erastin only treatment
Dose response curve is graphed by using the non-linear regression analysis (formula equation 201) in XLFit (Excel add-in software) for the average % remaining activity from triplicates, and the EC50 values is then calculated. In this anti-ferroptosis assay, ferrostatin-1, and XJB-5-131 are included as reference. The acceptance criteria were set based on historical result, mean±2.58*SD in logarithmic scale, meanwhile Z′>0.5.

Q: `CC(C)C[C@@H](/C=C/[C@H](Cc1ccccc1)C(=O)N1CCC[C@H]1C(=O)N[C@@H](C(=O)N[C@@H](CCCNC(=O)OCc1ccccc1)C(=O)NC1CC(C)(C)N(O)C(C)(C)C1)C(C)C)NC(=O)OCC1CC1` [Example X, Cyclopropylmethyl N-[(4S,5E,7S)-7-benzyl-8-[(2S)—2-{[(1R)—1-{[(1S)—4-{[(benzyloxy)carbonyl]amino}-1-[(1-hydroxy-2,2,6,6-tetramethylpiperidin-4-yl)carbamoyl]butyl]carbamoyl}-2-methylpropyl]carbamoyl}pyrrolidin-1-yl]-2-methyl-8-oxooct-5-en-4-yl]carbamate] was tested. Which EC50 (3T3-L1 cells; Mus musculus, 3T3-L1) did it give?
A: Its EC50 is 1380 nM.

Q: And the EC50 ([1]; Homo sapiens, 30 hours)?
A: The EC50 was 285 nM.

Q: What does the source list for `CC(C)C[C@@H](/C=C/[C@H](Cc1ccccc1)C(=O)N1CCC[C@H]1C(=O)N[C@@H](CCCNC(=O)OC1CC(C)(C)N(O)C(C)(C)C1)C(=O)OC(C)C)NC(=O)OC(C)(C)C` [Example XXIX, Propan-2-yl (2S)—2-{[(2S)-1-[(2S,3E,5S)-2-benzyl-5-{[(tert-butoxy)carbonyl]amino}-7-methyloct-3-enoyl]pyrrolidin-2-yl]formamido}-5-({[(1-oxyl-2,2,6,6-tetramethylpiperidin-4-yl)oxy]carbonyl}amino)pentanoate]?
A: EC50 (3T3-L1 cells; Mus musculus, 3T3-L1): 4320 nM; EC50 ([1]; Homo sapiens, HT-1080, 30 h): 73 nM

Q: What does the source list for `CC(C)C[C@@H](/C=C/[C@H](Cc1ccccc1)C(=O)N1CCC[C@H]1C(=O)N[C@@H](CCCNC(=O)OC1CC(C)(C)N(O)C(C)(C)C1)C(=O)NC(C)C)NC(=O)OC(C)(C)C` [Example XXXXIV, tert-Butyl N-[(4S,5E,7S)-7-benzyl-8-[(2S)—2-{[(1S)-4-({[(1-oxyl-2,2,6,6-tetramethylpiperidin-4-yl)oxy]carbonyl}amino)-1-[(propan-2-yl)carbamoyl]butyl]carbamoyl}pyrrolidin-1-yl]-2-methyl-8-oxooct-5-en-4-yl]carbamate]?
A: EC50 (3T3-L1 cells; Mus musculus, 3T3-L1): 628 nM; EC50 ([1]; Homo sapiens, HT-1080, 30 h): 140 nM

Q: Which results are given for `CC(C)C[C@@H](/C=C/[C@H](Cc1ccccc1)C(=O)N1CCC[C@H]1C(=O)N[C@@H](C(=O)N[C@@H](CCCNC(=O)OCc1ccccc1)C(=O)NC1CC(C)(C)N(O)C(C)(C)C1)C(C)C)NC(=O)OC(C)(C)C` [Example IV]?
A: EC50 (3T3-L1 cells; Mus musculus, 3T3-L1): 1270 nM; EC50 ([1]; Homo sapiens, 30 hours): 564 nM

Q: For `CC(C)C[C@@H](/C=C/[C@H](Cc1ccccc1)C(=O)N1CCC[C@H]1C(=O)N[C@@H](CCCNC(=O)OCc1ccccc1)C(=O)NC1CC(C)(C)N(O)C(C)(C)C1)NC(=O)OC(C)(C)C` [Example I, Benzyl N-[(4S)—4-{[(2S)-1-[(2S,3E,5S)-2-Benzyl-5-{[(Tert-Butoxy)Carbonyl]Amino}-7-Methyloct-3-Enoyl]Pyrrolidin-2-Yl]Formamido}-4-[(1-Oxyl-2,2,6,6-Tetramethylpiperidin-4-Yl)Carbamoyl]Butyl]Carbamate], which EC50 (3T3-L1 cells) is on record?
A: Its EC50 is 1580 nM.

Q: What about the EC50 ([1]; 30 hours) of the same compound?
A: The EC50 was 260 nM.

Q: Which EC50 (3T3-L1 cells) does the source give for “1-Oxyl-2,2,6,6-tetramethylpiperidin-4-yl-N-[(4S)—4-{[(2S)-1-[(2S,3E,5S)-2-benzyl-5-{[(tert- butoxy)carbonyl]amino}-7-methyloct-3-enoyl]pyrrolidin-2-yl]formamido}-4-[(1-oxyl-2,2,6,6-tetramethylpiperidin-4-yl)carbamoyl]butyl]carbamate [Example XXXXII]” here?
A: Its EC50 is 708 nM.

Q: And the EC50 ([1]; 30 hours)?
A: The EC50 was 274 nM.

Q: For `COC(=O)[C@H](CCCNC(=O)OC1CC(C)(C)N(O)C(C)(C)C1)NC(=O)[C@@H](NC(=O)[C@@H]1CCCN1C(=O)[C@H](/C=C/[C@H](CC(C)C)NC(=O)OC(C)(C)C)Cc1ccccc1)C(C)C` [Example XXXVIII, (S)—Methyl 2-((S)-2-((S)-1-((2S,5S,E)-2-benzyl-5-((tert-butoxycarbonyl)amino)-7-methyloct-3-enoyl)pyrrolidine-2-carboxamido)-3-methylbutanamido)—5-((((1-oxyl-2,2,6,6-tetramethylpiperidin-4-yl)oxy)carbonyl)amino)pentanoate], which EC50 (3T3-L1 cells; Mus musculus, 3T3-L1) is on record?
A: The EC50 was 2650 nM.

Q: And the EC50 ([1]; Homo sapiens, HT-1080, 30 h)?
A: Its EC50 is 76 nM.

Q: For `CC(C)C[C@@H](/C=C/[C@H](Cc1ccccc1)C(=O)N1CCC[C@H]1C(=O)N[C@@H](CCCCNC(=O)OCc1ccccc1)C(=O)NC1CC(C)(C)N(O)C(C)(C)C1)NC(=O)OC(C)(C)C` [Example XXVI, Benzyl N—[(5 S)—5-{[(2S)-1-[(2S,3E,5S)-2-benzyl-5-{[(tert-butoxy)carbonyl]amino}-7-methyloct-3-enoyl]pyrrolidin-2-yl]formamido}-5-[(1-oxyl-2,2,6,6-tetramethylpiperidin-4-yl)carbamoyl]pentyl]carbamate], which EC50 (3T3-L1 cells; Mus musculus, 3T3-L1) is on record?
A: Its EC50 is 683 nM.

Q: And the EC50 ([1]; Homo sapiens, HT-1080, 30 h)?
A: The EC50 was 140 nM.

Q: `CC(C)C[C@@H](/C=C/[C@H](Cc1ccccc1)C(=O)N1CCC[C@H]1C(=O)NC(CCCNC(=O)OCc1ccccc1)C(=O)NC1CC(C)(C)N(O)C(C)(C)C1)NC(=O)OC(C)(C)C` (stereo in doubt) [Example V, Benzyl N-[(4R)—4-{[(2S)-1-[(2S,3E,5S)-2-benzyl-5-{[(tert-butoxy)carbonyl]amino}-7-methyloct-3-enoyl]pyrrolidin-2-yl]formamido}-4-[(1-hydroxy-2,2,6,6-tetramethylpiperidin-4-yl)carbamoyl]butyl]carbamate] was tested. Which EC50 (3T3-L1 cells; Mus musculus, 3T3-L1) did it give?
A: Its EC50 is 1310 nM.

Q: And the EC50 ([1]; Homo sapiens, HT-1080, 30 h)?
A: Its EC50 is 141 nM.

Q: What does the source list for `CC(C)C[C@@H](/C=C/[C@H](Cc1ccccc1)C(=O)N1CCC[C@@H]1C(=O)N[C@H](C(=O)N[C@@H](CCCNC(=O)OCc1ccccc1)C(=O)NC1CC(C)(C)N(O)C(C)(C)C1)C(C)C)NC(=O)OC(C)(C)C` [Example VII, Benzyl N-[(4S)-4-[(2S)—2-{[(2R)-1-[(2S,3E,5S)-2-benzyl-5-{[(tert-butoxy)carbonyl]amino}-7-methyloct-3-enoyl]pyrrolidin-2-yl]formamido}-3-methylbutanamido]-4-[(1-hydroxy-2,2,6,6-tetramethylpiperidin-4-yl)carbamoyl]butyl]carbamate]?
A: EC50 (3T3-L1 cells; Mus musculus, 3T3-L1): 4640 nM; EC50 ([1]; Homo sapiens, 30 hours): 342 nM

Q: With `CC(C)C[C@@H](/C=C/[C@H](Cc1ccccc1)C(=O)N1CCC[C@H]1C(=O)N[C@@H](CCCNC(=O)OCc1ccccc1)C(=O)NC1CC(C)(C)N(O)C(C)(C)C1)NC(=O)OC(C)(C)C` [Example IX, Benzyl N-[(4S)—4-{[(2S)-1-[(2S,3E,5S)-2-benzyl-5-{[(tert-butoxy)carbonyl]amino}-7-methyloct-3-enoyl]pyrrolidin-2-yl]formamido}-4-[(1-hydroxy-2,2,6,6-tetramethylpiperidin-4-yl)carbamoyl]butyl]carbamate] as the compound, how does the EC50 (3T3-L1 cells; Mus musculus, 3T3-L1) read?
A: Its EC50 is 1370 nM.

Q: And the EC50 ([1]; 30 hours)?
A: Its EC50 is 261 nM.

Q: `CC(C)C[C@@H](/C=C/[C@H](Cc1ccccc1)C(=O)N1CCC[C@H]1C(=O)N[C@@H](CCCCNC(=O)OC1CC(C)(C)N(O)C(C)(C)C1)C(=O)NC(C)(C)C)NC(=O)OC(C)(C)C` [Example XXXVI, tert-Butyl N-[(4S,5E,7S)-7-benzyl-8-[(2S)—2-{[(1S)-1-(tert-butylcarbamoyl)-5-({[(1-oxyl-2,2,6,6-tetramethylpiperidin-4-yl)oxy]carbonyl}amino)pentyl]-carbamoyl}pyrrolidin-1-yl]-2-methyl-8-oxooct-5-en-4-yl]carbamate] was tested. Which EC50 ([1]; Homo sapiens, HT-1080, 30 h) did it give?
A: Its EC50 is 142 nM.

Q: `CC(C)C[C@@H](/C=C/[C@H](Cc1ccccc1)C(=O)N1CCC[C@H]1C(=O)N[C@@H](C)C(=O)N[C@@H](CCCNC(=O)OCc1ccccc1)C(=O)NC1CC(C)(C)N(O)C(C)(C)C1)NC(=O)OC(C)(C)C` [Example XIV, Benzyl N-[(4S)-4-[(2S)—2-{[(2S)-1-[(2S,3E,5S)-2-benzyl-5-{[(tert-butoxy)carbonyl]amino}-7-methyloct-3-enoyl]pyrrolidin-2-yl]formamido}propanamido]-4-[(1-hydroxy-2,2,6,6-tetramethylpiperidin-4-yl)carbamoyl]butyl]carbamate] was tested. Which EC50 ([1]; Homo sapiens, HT-1080, 30 h) did it give?
A: Its EC50 is 515 nM.
